Experimental data from ChEMBL document CHEMBL4020814, “Synthesis, Binding Mode, and Antihyperglycemic Activity of Potent and Selective (5-Imidazol-2-yl-4-phenylpyrimidin-2-yl)[2-(2-pyridylamino)ethyl]amine Inhibitors of Glycogen Synthase Kinase 3” (J Med Chem, 2017).

Key:
[1] = Inhibition of human GSK3 using biotin-CREB peptide substrate after 1 hr by scintillation counting method
[2] = Stability in rat liver microsomes assessed as half life; assay type: ADME, microsome
[3] = Stability in dog liver microsomes assessed as half life; assay type: ADME, Canis lupus familiaris, microsome
[4] = Inhibition of GSK3 expressed in CHO-IR cells expressing human insulin receptor assessed as glycogen synthase activation after 30 mins by filter paper assay; assay type: cell-based, Cavia porcellus

SMILES | IC50 [1] [nM] | half-life [2] [min] | half-life [3] [min] | EC50 [4] [nM]
Clc1ccc(-c2nc(NCCNc3ccccn3)ncc2-c2ncc[nH]2)c(Cl)c1 | 2860 | > 30 | > 30 | –
Nc1nc(NCCNc2ncc(-c3ncc[nH]3)c(-c3ccccc3Cl)n2)ccc1[N+](=O)[O-] | 12 | > 30 | > 30 | 730
Nc1nc(NCCNc2ncc(-c3ncc[nH]3)c(-c3ccc(F)cc3Cl)n2)ccc1[N+](=O)[O-] | 7 | > 30 | > 30 | 420
Nc1nc(NCCNc2ncc(-c3ncc[nH]3)c(-c3ccc(F)cc3C(F)(F)F)n2)ccc1[N+](=O)[O-] | 13 | > 30 | > 30 | 3300
Nc1nc(NCCNc2ncc(-c3ncc[nH]3)c(-c3cc(F)c(Cl)cc3Cl)n2)ccc1[N+](=O)[O-] | 13 | > 30 | > 30 | 2280
Nc1nc(NCCNc2ncc(-c3ncc[nH]3)c(-c3ccccc3Br)n2)ccc1[N+](=O)[O-] | 7 | > 30 | > 30 | 240
Nc1nc(NCCNc2ncc(N3CCCC3=O)c(-c3ccc(Cl)cc3Cl)n2)ccc1[N+](=O)[O-] | 6 | – | – | 1580
Cc1ccc(-c2nc(NCCNc3ccc([N+](=O)[O-])cn3)ncc2-n2ccnc2)c(C)c1 | 38 | – | – | 4200
CNC(=O)Nc1cnc(NCCNc2ccc([N+](=O)[O-])c(N)n2)nc1-c1ccc(Cl)cc1Cl | 27 | – | – | 3000
O=[N+]([O-])c1ccc(NCCNc2ncc(-n3ccnc3)c(-c3ccc(N4CCOCC4)cc3)n2)nc1 | 29 | – | – | 6100
CC(=O)Nc1cnc(NCCNc2ccc([N+](=O)[O-])c(N)n2)nc1-c1ccc(Cl)cc1Cl | 6 | – | – | 190
O=[N+]([O-])c1cnc(NCCNc2ncc(-n3ccnc3)c(-c3ccc(Cl)cc3Cl)n2)s1 | 24 | – | – | > 10000
O=[N+]([O-])c1ccc(NCCNc2ncc(-n3ccnc3)c(-c3ccc(C(F)(F)F)cc3)n2)nc1 | 40 | – | – | 2500
N#Cc1ccc(-c2nc(NCCNc3ccc([N+](=O)[O-])cn3)ncc2C(=O)OCCO)cc1 | 51 | – | – | 8300
N#Cc1ccc(NCCNc2ncc(-n3ccnc3)c(-c3ccc(Cl)cc3Cl)n2)nc1N | 56 | – | – | 1010
CCOC(=O)c1c(CC)nc(NCCNc2ccc([N+](=O)[O-])cn2)nc1-c1ccc(C#N)cc1 | 40 | – | – | 1700
CC(C)c1c[nH]c(-c2cnc(NCCNc3ccc([N+](=O)[O-])c(N)n3)nc2-c2ccc(Cl)cc2Cl)n1 | 21 | – | – | 90
COc1cc(Cl)ccc1-c1nc(NCCNc2ccc([N+](=O)[O-])c(N)n2)ncc1-c1ncc[nH]1 | 249 | > 30 | > 30 | –
CNC(=O)c1cnc(NCCNc2ccc([N+](=O)[O-])cn2)nc1-c1ccc(C#N)cc1 | 33 | – | – | > 10000

SMILES | IC50 [1] [nM] | half-life [2] [min] | half-life [3] [min] | EC50 [4] [nM]
CCOC(=O)c1c(-c2ccc(C(N)=O)cc2)nc(NCCNc2ccc([N+](=O)[O-])cn2)nc1-c1ccc([N+](=O)[O-])cc1 | 150 | – | – | 18000
N#Cc1ccc(-c2nc(NCCNc3ccc([N+](=O)[O-])cn3)ncc2C(=O)N2CCNCC2)cc1 | 417 | – | – | > 10000
O=[N+]([O-])c1ccc(NCCNc2ncc(-n3ccnc3)c(-c3ccc(Cl)cc3)n2)nc1 | 53 | – | – | 1200
O=[N+]([O-])c1ccc(NCCNc2ncc(-n3ccnc3)c(-c3ccc(F)cc3F)n2)nc1 | 31 | – | – | 900
Nc1nc(NCCNc2ncc(-c3ncc[nH]3)c(-c3cc(F)ccc3Cl)n2)ccc1[N+](=O)[O-] | 32 | > 30 | > 30 | –
CN1CCCC1CCN(CCNc1ccc([N+](=O)[O-])cn1)c1ncc(-n2ccnc2)c(-c2ccc(Cl)cc2Cl)n1 (stereo not given) | 27 | – | – | 110
CN(C)CCN(CCNc1ccc([N+](=O)[O-])cn1)c1ncc(-n2ccnc2)c(-c2ccc(Cl)cc2Cl)n1 | 35 | – | – | 350
CC(C)[C@H](N)C(=O)Nc1cnc(NCCNc2ccc([N+](=O)[O-])c(N)n2)nc1-c1ccc(Cl)cc1Cl | 14 | – | – | 860
Nc1nc(NCCNc2ncc(-c3nc(C(F)(F)F)c[nH]3)c(-c3ccc(Cl)cc3Cl)n2)ccc1[N+](=O)[O-] | 34 | – | – | 170
CN(C)C(=O)c1cnc(NCCNc2ccc([N+](=O)[O-])cn2)nc1-c1ccc(C#N)cc1 | 61 | – | – | 8700
Nc1nc(NCCNc2ncc(NC(=O)NCCN3CCOCC3)c(-c3ccc(Cl)cc3Cl)n2)ccc1[N+](=O)[O-] | 16 | – | – | 3000
O=[N+]([O-])c1ccc(NCCNc2ncc(-n3cnnn3)c(-c3ccc(Cl)cc3Cl)n2)nc1 | 15 | – | – | 280
Cc1ccc(-c2nc(NCCNc3ccc([N+](=O)[O-])cn3)ncc2-n2ccnc2)cc1 | 34 | – | – | 300
O=[N+]([O-])c1ccc(NCCN(CCN2CCCC2)c2ncc(-n3ccnc3)c(-c3ccc(Cl)cc3Cl)n2)nc1 | 26 | – | – | 370
Cc1noc(-c2cnc(NCCNc3ccc([N+](=O)[O-])cn3)nc2-c2ccc(C#N)cc2)n1 | 33 | – | – | 1500
CN(CCNc1ccc([N+](=O)[O-])cn1)c1ncc(-n2ccnc2)c(-c2ccc(Cl)cc2Cl)n1 | 22 | – | – | 80
CCOC(=O)c1c(CC)nc(NCCNc2ccc([N+](=O)[O-])cn2)nc1-c1ccc(C(N)=O)cc1 | 120 | – | – | 9600
Cc1cc(NCCNc2ncc(-n3ccnc3)c(-c3ccc(Cl)cc3Cl)n2)n2ncnc2n1 | 108 | – | – | > 10000
Nc1nc(NCCNc2ncc(NC(=O)CCCN3CCOCC3)c(-c3ccc(Cl)cc3Cl)n2)ccc1[N+](=O)[O-] | 24 | – | – | 17700

SMILES | IC50 [1] [nM] | half-life [2] [min] | half-life [3] [min] | EC50 [4] [nM]
Clc1ccc(-c2nc(NCCNc3cc(Cl)ncn3)ncc2-n2ccnc2)c(Cl)c1 | 201 | – | – | 3900
O=[N+]([O-])c1ccc(NCCNc2ncc(-n3ccnc3)c(-c3ccc(Cl)cc3Cl)n2)nc1 | 6 | – | – | 300
O=[N+]([O-])c1ccc(NCCNc2ncc(-c3nnn[nH]3)c(-c3ccc(Cl)cc3Cl)n2)nc1 | 31 | – | – | 10000
O=[N+]([O-])c1ccc(NCCN(CCN2CCCCCC2)c2ncc(-n3ccnc3)c(-c3ccc(Cl)cc3Cl)n2)nc1 | 32 | – | – | 110
N#Cc1ccc(-c2nc(NCCNc3ccc([N+](=O)[O-])cn3)ncc2C(N)=O)cc1 | 29 | – | – | > 10000
Cc1nc(-c2cnc(NCCNc3ccc([N+](=O)[O-])c(N)n3)nc2-c2ccc(Cl)cc2Cl)n(C)c1C | 22 | – | – | 320
FC(F)(F)c1ccc(NCCNc2ncc(-n3ccnc3)c(-c3ccc(Cl)cc3Cl)n2)nc1 | 223 | – | – | 3840
O=[N+]([O-])c1ccc(NCCNc2ncc(-n3ccnc3)c(-c3ccccc3Cl)n2)nc1 | 24 | – | – | 1240
N#Cc1ccc(-c2nc(NCCNc3ccc([N+](=O)[O-])cn3)ncc2C(=O)NCCO)cc1 | 29 | – | – | > 10000
Nc1nc(NCCNc2ncc(N3CCNCC3=O)c(-c3ccc(Cl)cc3Cl)n2)ccc1[N+](=O)[O-] | 15 | – | – | 5410
CN(C)CCN(C)C(=O)c1cnc(NCCNc2ccc([N+](=O)[O-])cn2)nc1-c1ccc(C#N)cc1 | 140 | – | – | > 10000
CCOC(=O)c1cnc(NCCNc2ccc([N+](=O)[O-])cn2)nc1-c1ccc(C#N)cc1 | 52 | – | – | 2200
Nc1nc(NCCNc2ncc(-n3cccc(C(F)(F)F)c3=O)c(-c3ccc(Cl)cc3Cl)n2)ccc1[N+](=O)[O-] | 4 | – | – | 40
CN(C)CCOC(=O)c1cnc(NCCNc2ccc([N+](=O)[O-])cn2)nc1-c1ccc(C#N)cc1 | 50 | – | – | 3400
CN(C)CCNC(=O)c1cnc(NCCNc2ccc([N+](=O)[O-])cn2)nc1-c1ccc(C#N)cc1 | 71 | – | – | > 10000
N#Cc1ccc(-c2nc(NCCNc3ccc([N+](=O)[O-])cn3)ncc2-n2cncn2)cc1 | 19 | – | – | 1000
Nc1nc(NCCNc2ncc(-c3ccccn3)c(-c3ccc(Cl)cc3Cl)n2)ccc1[N+](=O)[O-] | 7 | – | – | 10
Cc1nc(-c2cnc(NCCNc3ccc([N+](=O)[O-])c(N)n3)nc2-c2ccc(Cl)cc2Cl)[nH]c1C | 3 | – | – | 440
